Data taken from ChEMBL document CHEMBL1201862, “PubChem BioAssay data set” (2004).
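Cultured in 96-well plates, cells were exposed to test compound for 48 hours across five concentrations. GI50: concentration for 50% inhibition of growth.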 Activity calls are given as the source filed them. Rule as the data show it: active = GI50 up to about 1.1 µM and inactive = higher.

Experiments:
Assay in all cases: NCI tumour cell line growth inhibition, 48 h
A549 = system: A549
SF-268 = system: SF-268
OVCAR-8 = system: OVCAR-8
NCI-H522 = system: NCI-H522
RPMI-8226 = system: RPMI-8226
Hs-578T = system: Hs-578T
BT-549 = system: BT-549
UACC-62 = system: UACC-62
UO-31 = system: UO-31
PC-3 = system: PC-3
SK-MEL-5 = system: SK-MEL-5
DU-145 = system: DU-145
T47D = system: T47D
SNB-75 = system: SNB-75
A498 = system: A498
CAKI-1 = system: CAKI-1
SF-295 = system: SF-295
HCT-15 = system: HCT-15
SW-620 = system: SW-620
SK-MEL-28 = system: SK-MEL-28
786-0 = system: 786-0
MCF7 = system: MCF7
SR = system: SR
HCC 2998 = system: HCC 2998
NCI-H460 = system: NCI-H460
U-251 = system: U-251
HOP-92 = system: HOP-92
OVCAR-4 = system: OVCAR-4
ACHN = system: ACHN
HOP-62 = system: HOP-62
K562 = system: K562
MDA-N = system: MDA-N
MDA-MB-231 = system: MDA-MB-231
SK-OV-3 = system: SK-OV-3
TK-10 = system: TK-10
Malme-3M = system: Malme-3M
OVCAR-3 = system: OVCAR-3
MDA-MB-435 = system: MDA-MB-435
SNB-19 = system: SNB-19
COLO 205 = system: COLO 205
HCT-116 = system: HCT-116
UACC-257 = system: UACC-257
OVCAR-5 = system: OVCAR-5
M14 = system: M14
IGROV-1 = system: IGROV-1
HT-29 = system: HT-29
NCI-H226 = system: NCI-H226
NCI-H23 = system: NCI-H23
MOLT-4 = system: MOLT-4
SF-539 = system: SF-539
CCRF-CEM = system: CCRF-CEM
KM12 = system: KM12
EKVX = system: EKVX
SN12C = system: SN12C
SK-MEL-2 = system: SK-MEL-2
RXF 393 = system: RXF 393
NCI/ADR-RES = system: NCI/ADR-RES
LOX IMVI = system: LOX IMVI

## O=C(N/N=C\c1ccc(Cl)cc1)Nc1ccc2ccccc2c1
A549
  GI50: 52 µM (inactive)
SF-268
  GI50: 26.9 µM (inactive)
OVCAR-8
  GI50: 27.4 µM (inactive)
NCI-H522
  GI50: 38.9 µM (inactive)
RPMI-8226
  GI50: 70.8 µM (inactive)
Hs-578T
  GI50: 26.9 µM (inactive)
BT-549
  GI50: 56.6 µM (inactive)
UACC-62
  GI50: 34.5 µM (inactive)
UO-31
  GI50: 53.7 µM (inactive)
PC-3
  GI50: 30.3 µM (inactive)
SK-MEL-5
  GI50: > 100 µM (inactive)
DU-145
  GI50: > 100 µM (inactive)
T47D
  GI50: > 100 µM (inactive)
SNB-75
  GI50: 30.5 µM (inactive)
A498
  GI50: 30.9 µM (inactive)
CAKI-1
  GI50: 41.7 µM (inactive)
SF-295
  GI50: > 10 µM (inactive)
HCT-15
  GI50: > 100 µM
SW-620
  GI50: 46.2 µM (inactive)
SK-MEL-28
  GI50: 54.7 µM (inactive)
786-0
  GI50: 19.3 µM (inactive)
MCF7
  GI50: 87.9 µM (inactive)
SR
  GI50: 36.2 µM (inactive)
HCC 2998
  GI50: 67.5 µM (inactive)
NCI-H460
  GI50: 28.5 µM (inactive)
U-251
  GI50: 23.9 µM (inactive)
HOP-92
  GI50: 29.6 µM (inactive)
OVCAR-4
  GI50: 19.8 µM (inactive)
ACHN
  GI50: 43.6 µM (inactive)
HOP-62
  GI50: 21.9 µM (inactive)
K562
  GI50: > 100 µM (inactive)
MDA-N
  GI50: 86.7 µM (inactive)
MDA-MB-231
  GI50: 41.9 µM (inactive)
SK-OV-3
  GI50: 94.6 µM (inactive)
TK-10
  GI50: 55.5 µM (inactive)
Malme-3M
  GI50: 32.8 µM (inactive)
OVCAR-3
  GI50: > 100 µM (inactive)
MDA-MB-435
  GI50: 49.7 µM (inactive)
SNB-19
  GI50: 30.4 µM (inactive)
COLO 205
  GI50: > 100 µM (inactive)
HCT-116
  GI50: 53.6 µM (inactive)
UACC-257
  GI50: 95.5 µM (inactive)
OVCAR-5
  GI50: 71.6 µM (inactive)
M14
  GI50: 59.2 µM (inactive)
IGROV-1
  GI50: 61.5 µM (inactive)
HT-29
  GI50: 46.2 µM (inactive)
NCI-H226
  GI50: > 100 µM (inactive)
NCI-H23
  GI50: 76.4 µM (inactive)
MOLT-4
  GI50: > 100 µM (inactive)
SF-539
  GI50: 27.8 µM (inactive)
CCRF-CEM
  GI50: > 100 µM (inactive)
KM12
  GI50: 79.3 µM (inactive)
EKVX
  GI50: 64.9 µM (inactive)
SN12C
  GI50: 40.6 µM (inactive)
SK-MEL-2
  GI50: 80.4 µM (inactive)
RXF 393
  GI50: 27.6 µM (inactive)
NCI/ADR-RES
  GI50: 49.3 µM (inactive)
LOX IMVI
  GI50: > 100 µM (inactive)

## CCCCn1c2c(n(CCCC)c1=S)-c1c(n(CCCC)c(=S)n1CCCC)SSSS2
A549
  GI50: 26.7 µM (inactive)
SF-268
  GI50: 3.44 µM (inactive)
OVCAR-8
  GI50: 0.718 µM (active)
NCI-H522
  GI50: 0.0785 µM (active)
RPMI-8226
  GI50: 0.399 µM (active)
Hs-578T
  GI50: 3.82 µM (inactive)
BT-549
  GI50: 0.973 µM (active)
UACC-62
  GI50: 1.47 µM (inactive)
UO-31
  GI50: 0.881 µM (active)
PC-3
  GI50: 0.414 µM (active)
SK-MEL-5
  GI50: 2.09 µM (inactive)
DU-145
  GI50: 5.42 µM (inactive)
T47D
  GI50: 0.18 µM (active)
SNB-75
  GI50: 4.48 µM (inactive)
A498
  GI50: > 47.2 µM (inactive)
CAKI-1
  GI50: 0.543 µM (active)
SF-295
  GI50: 13.3 µM (inactive)
HCT-15
  GI50: 0.557 µM
SW-620
  GI50: 0.348 µM (active)
SK-MEL-28
  GI50: 9.02 µM (inactive)
786-0
  GI50: 1.38 µM (inactive)
MCF7
  GI50: 2.68 µM (inactive)
SR
  GI50: 0.397 µM (active)
HCC 2998
  GI50: 7.59 µM (inactive)
NCI-H460
  GI50: 30.8 µM (inactive)
U-251
  GI50: 1.99 µM (inactive)
HOP-92
  GI50: 0.301 µM (active)
OVCAR-4
  GI50: 0.367 µM (active)
ACHN
  GI50: 0.966 µM (active)
HOP-62
  GI50: 6.28 µM (inactive)
K562
  GI50: 0.371 µM (active)
MDA-N
  GI50: 2.84 µM (inactive)
MDA-MB-231
  GI50: 0.656 µM (active)
SK-OV-3
  GI50: 46.1 µM (inactive)
TK-10
  GI50: 1.22 µM (inactive)
Malme-3M
  GI50: 0.36 µM (active)
OVCAR-3
  GI50: 0.267 µM (active)
MDA-MB-435
  GI50: 2.41 µM (inactive)
SNB-19
  GI50: 3.86 µM (inactive)
COLO 205
  GI50: 0.432 µM (active)
HCT-116
  GI50: 2.24 µM (inactive)
UACC-257
  GI50: 2.29 µM (inactive)
OVCAR-5
  GI50: 0.362 µM (active)
M14
  GI50: 3.92 µM (inactive)
IGROV-1
  GI50: 0.7 µM (active)
HT-29
  GI50: 2.26 µM (inactive)
NCI-H226
  GI50: 16.6 µM (inactive)
NCI-H23
  GI50: 3.31 µM (inactive)
MOLT-4
  GI50: 0.454 µM (active)
SF-539
  GI50: 0.783 µM (active)
CCRF-CEM
  GI50: 0.0957 µM (active)
KM12
  GI50: 8.93 µM (inactive)
EKVX
  GI50: 1.31 µM (inactive)
SN12C
  GI50: 3.1 µM (inactive)
SK-MEL-2
  GI50: 2.09 µM (inactive)
RXF 393
  GI50: 2.7 µM (inactive)
NCI/ADR-RES
  GI50: 15 µM (inactive)
LOX IMVI
  GI50: 2.03 µM (inactive)
